Data published in paper PMC8162404, “Proteomimetic surface fragments distinguish targets by function” (Chemical Science, 2020).

Assays:
CaM [1] = molecular target: T1, CaM (Bos taurus, UniProt P62157); experiment: Pull-down assay with immobilized protein and LSM libraries; assay type: binding, bovine; details: H14 library; 1:2 stoichiometry assumed; read-out: Surface mapping KD (apparent)
T1 construct: made in house; host or cells: E. coli BL21 (DE3)
Procedure, shortened: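 CaM buffer was 20 mM HEPES pH 7.4, 150 mM NaCl, 5 mM CaCl2. LSM sublibrary members ([…]) incubated 30 min, RT, with equimolar His-tagged protein on Co-NTA resin. HPLC-MS measured unbound probes; bound fraction relative to resin-only background gave dissociation constants.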

Gal-1 [2] = molecular target: T2, Gal-1 (Homo sapiens, UniProt P09382); experiment: as above; assay type: binding; details: H14 library; 1:1 binding assumed; read-out: Surface mapping KD (apparent)
T2 construct: made in house; host or cells: E. coli BL21(DE3)
T2 sequence (P09382 whole entry): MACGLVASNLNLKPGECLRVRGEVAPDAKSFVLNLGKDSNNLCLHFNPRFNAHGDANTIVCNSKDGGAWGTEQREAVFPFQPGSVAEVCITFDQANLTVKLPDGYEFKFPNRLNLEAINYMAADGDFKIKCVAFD
Procedure, shortened: (§1)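 Buffers were HEPES pH 7.4 with 150 mM NaCl, plus 1 mM TCEP and 1 mM CaCl2 (50 mM HEPES) for S100A4 and S100B, 1 mM TCEP for Gal-1, and no additive for RecQ-WH. Immobilized protein at 64 µM was equilibrated 30 min with the LSM sublibrary, and unbound probes were measured by LC-MS.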

S100A4 [3] = molecular target: T3, S100A4 (Homo sapiens, UniProt P26447); experiment: as above; assay type: binding; details: for Kd: H14 library, 1:1 binding assumed, read-out: Surface mapping KD (apparent); for Affinity class of probe (high, medium, low) in pull-down: H14 probes selected for validation
T3 construct: made in house; host or cells: Escherichia coli BL21(DE3)
T3 sequence (P26447 whole entry): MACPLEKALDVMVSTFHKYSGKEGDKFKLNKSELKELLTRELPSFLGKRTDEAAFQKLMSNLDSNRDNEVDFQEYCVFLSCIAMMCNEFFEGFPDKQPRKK
Procedure, shortened: as §1

S100B [4] = molecular target: T4, S100B (Homo sapiens, UniProt P04271); experiment: as above; assay type: binding; details: for Kd: H14 library, 1:1 binding assumed, read-out: Surface mapping KD (apparent); for Affinity class of probe (high, medium, low) in pull-down: H14 probes selected for validation
T4 construct: made in house; host or cells: Escherichia coli BL21(DE3)
T4 sequence (P04271 1-92): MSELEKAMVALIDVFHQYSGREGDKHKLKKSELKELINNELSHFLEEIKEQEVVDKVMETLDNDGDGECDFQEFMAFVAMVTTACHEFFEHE
Procedure, shortened: as §1

RecQ-WH [5] = molecular target: T5, RecQ-WH (Escherichia coli, UniProt P15043); experiment: as above; parameters: species or system E. coli; details: H14 library; 1:1 binding assumed; read-out: Surface mapping KD (apparent)
T5 construct: coding for residues 408– 523 of E. coli RecQ; made in house; host or cells: E. coli BL21(DE3)
T5 sequence (P15043 408-523): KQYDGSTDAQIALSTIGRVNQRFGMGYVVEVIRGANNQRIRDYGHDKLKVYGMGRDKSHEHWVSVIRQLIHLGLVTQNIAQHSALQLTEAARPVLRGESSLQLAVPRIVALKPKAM
Procedure, shortened: as §1

CaM [6] = molecular target: T1, CaM; experiment: Competition pull-down with native ligand TRPV1-Ct15; assay type: binding, bovine; details: H14 library; competitor peptide 200 µM; read-out: Surface mapping KD (apparent), competition
S100B [7] = molecular target: T4, S100B; experiment: Competition pull-down with native ligand RSK1 (689–735); assay type: binding; details: H14 library; competitor peptide 200 µM; read-out: Surface mapping KD (apparent), competition
RecQ-WH [8] = molecular target: T5, RecQ-WH; experiment: Competition pull-down with native ligand SSB-Ct8; assay type: binding, E. coli; details: H14 library; competitor peptide 200 µM; read-out: Surface mapping KD (apparent), competition
Gal-1 [9] = molecular target: T2, Gal-1; experiment: Competition pull-down with lactose; assay type: binding; details: H14 library; lactose 10 mM; read-out: Surface mapping KD (apparent), competition
Procedure, shortened: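 His6-tagged proteins immobilized on Co-NTA resin at 64 µM final with 64-member LSM foldamer sublibraries (1 M each, as printed) in pH 7.4 HEPES/NaCl buffers (Ca2+/TCEP per target), 30 min RT; competitor peptides 200 µM final, lactose 10 mM for Gal-1. Bound fractions from LC-MS loss vs protein-free resin; KD assuming 1:1 binding.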

S100A4 [10] = molecular target: T3, S100A4; experiment: Competition pull-down with native ligand NMIIA (1893–1923); assay type: binding; details: H14 library; competitor peptide 200 µM; read-out: Surface mapping KD (apparent), competition

| Structure (SMILES) | Kd (CaM [1]) [µM] | Kd (Gal-1 [2]) [µM] | Kd (S100A4 [3]) [µM] | Kd (S100B [4]) [µM] | Kd (RecQ-WH [5]) [µM] | Kd (CaM [6]) [µM] | Kd (S100B [7]) [µM] | Kd (RecQ-WH [8]) [µM] | Kd (Gal-1 [9]) [µM] | Kd (S100A4 [10]) [µM] | Binding (S100A4 [3]; H14 probes) | Affinity class of probe (high, medium, low) in pull-down (S100A4 [3]) | Binding (S100B [4]; H14 probes) | Affinity class of probe (high, medium, low) in pull-down (S100B [4]) |
| --- | --- | --- | --- | --- | --- | --- | --- | --- | --- | --- | --- | --- | --- | --- |
| NC(=O)[C@H]1CCCC[C@@H]1NC(=O)C[C@H](Cc1ccccc1)NC(=O)[C@H]1CCCC[C@@H]1NC(=O)[C@H]1CCCC[C@@H]1NC(=O)C[C@H](Cc1ccccc1)NC(=O)[C@H]1CCCC[C@@H]1N [H14 FF] | 1.2 | 75 | 12 | 16 | 134 | 47 | 180 | 312 | 108 | – | – | – | – | – |
| CSCC[C@@H](CC(=O)N[C@H]1CCCC[C@@H]1C(N)=O)NC(=O)[C@H]1CCCC[C@@H]1NC(=O)[C@H]1CCCC[C@@H]1NC(=O)C[C@H](Cc1ccccc1)NC(=O)[C@H]1CCCC[C@@H]1N [H14 FM] | 2 | 284 | 22 | 19 | 225 | 109 | 352 | 454 | 250 | – | – | – | – | – |
| CC[C@H](C)[C@@H](CC(=O)N[C@H]1CCCC[C@@H]1C(=O)N[C@H]1CCCC[C@@H]1C(=O)N[C@@H](CCSC)CC(=O)N[C@H]1CCCC[C@@H]1C(N)=O)NC(=O)[C@H]1CCCC[C@@H]1N [H14 IM] | 11 | 238 | 3 | 47 | 340 | – | 163 | – | – | 217 | – | – | – | – |
| CC[C@H](C)[C@@H](CC(=O)N[C@H]1CCCC[C@@H]1C(=O)N[C@H]1CCCC[C@@H]1C(=O)N[C@H](CC(=O)N[C@H]1CCCC[C@@H]1C(N)=O)C(C)C)NC(=O)[C@H]1CCCC[C@@H]1N [H14 IV] | 3 | 57 | 3 | 43 | 366 | – | 178 | – | 114 | 187 | – | – | – | – |
| CC(C)C[C@@H](CC(=O)N[C@H]1CCCC[C@@H]1C(=O)N[C@H]1CCCC[C@@H]1C(=O)N[C@H](CC(=O)N[C@H]1CCCC[C@@H]1C(N)=O)C(C)C)NC(=O)[C@H]1CCCC[C@@H]1N [H14 LV] | 3 | 68 | 5 | 56 | 177 | – | 213 | – | 128 | 192 | – | – | – | – |
| NC(=O)CC[C@@H](CC(=O)N[C@H]1CCCC[C@@H]1C(=O)N[C@H]1CCCC[C@@H]1C(=O)N[C@H](CC(=O)N[C@H]1CCCC[C@@H]1C(N)=O)Cc1c[nH]c2ccccc12)NC(=O)[C@H]1CCCC[C@@H]1N [H14 QW] | 27 | 169 | – | 79 | 143 | 168 | 473 | 341 | 183 | – | – | – | – | – |
| N=C(N)NCCC[C@@H](CC(=O)N[C@H]1CCCC[C@@H]1C(=O)N[C@H]1CCCC[C@@H]1C(=O)N[C@H](CC(=O)N[C@H]1CCCC[C@@H]1C(N)=O)Cc1ccc(O)cc1)NC(=O)[C@H]1CCCC[C@@H]1N [H14 RY] | 16 | – | 112 | 40 | – | – | – | – | – | 324 | – | – | – | – |
| CC[C@H](C)[C@@H](CC(=O)N[C@H]1CCCC[C@@H]1C(N)=O)NC(=O)[C@H]1CCCC[C@@H]1NC(=O)[C@H]1CCCC[C@@H]1NC(=O)C[C@@H](NC(=O)[C@H]1CCCC[C@@H]1N)[C@@H](C)O [H14 TI] | 69 | 175 | 7 | 183 | – | – | – | – | 266 | 473 | binds | high | does not | low |
| CC(C)C[C@@H](CC(=O)N[C@H]1CCCC[C@@H]1C(N)=O)NC(=O)[C@H]1CCCC[C@@H]1NC(=O)[C@H]1CCCC[C@@H]1NC(=O)C[C@@H](NC(=O)[C@H]1CCCC[C@@H]1N)[C@@H](C)O [H14 TL] | 69 | 175 | 7 | 183 | – | – | – | – | 266 | 473 | – | – | – | – |
| CC[C@H](C)[C@@H](CC(=O)N[C@H]1CCCC[C@@H]1C(N)=O)NC(=O)[C@H]1CCCC[C@@H]1NC(=O)[C@H]1CCCC[C@@H]1NC(=O)C[C@@H](NC(=O)[C@H]1CCCC[C@@H]1N)C(C)C [H14 VI] | 13 | 105 | 3 | 43 | 366 | – | 181 | – | 293 | 246 | – | – | – | – |
| CC(C)[C@@H](CC(=O)N[C@H]1CCCC[C@@H]1C(N)=O)NC(=O)[C@H]1CCCC[C@@H]1NC(=O)[C@H]1CCCC[C@@H]1NC(=O)C[C@@H](NC(=O)[C@H]1CCCC[C@@H]1N)C(C)C [H14 VV] | 7 | 244 | 3 | 73 | – | – | 198 | – | – | 356 | – | – | – | – |
| CC(C)[C@@H](CC(=O)N[C@H]1CCCC[C@@H]1C(=O)N[C@H]1CCCC[C@@H]1C(=O)N[C@H](CC(=O)N[C@H]1CCCC[C@@H]1C(N)=O)Cc1c[nH]c2ccccc12)NC(=O)[C@H]1CCCC[C@@H]1N [H14 VW] | 13 | 98 | 11 | 16 | 221 | 153 | 60 | 452 | 211 | – | – | – | – | – |
| NC(=O)[C@H]1CCCC[C@@H]1NC(=O)C[C@H](Cc1ccccc1)NC(=O)[C@H]1CCCC[C@@H]1NC(=O)[C@H]1CCCC[C@@H]1NC(=O)C[C@H](Cc1c[nH]c2ccccc12)NC(=O)[C@H]1CCCC[C@@H]1N [H14 WF] | 4 | 38 | 10 | 14 | 62 | 29 | 177 | 106 | 59 | – | – | – | – | – |
| CSCC[C@@H](CC(=O)N[C@H]1CCCC[C@@H]1C(N)=O)NC(=O)[C@H]1CCCC[C@@H]1NC(=O)[C@H]1CCCC[C@@H]1NC(=O)C[C@H](Cc1c[nH]c2ccccc12)NC(=O)[C@H]1CCCC[C@@H]1N [H14 WM] | 1.4 | 145 | 43 | 45 | 81 | 251 | 125 | 188 | 305 | – | – | – | – | – |
| NC(=O)[C@H]1CCCC[C@@H]1NC(=O)C[C@H](CO)NC(=O)[C@H]1CCCC[C@@H]1NC(=O)[C@H]1CCCC[C@@H]1NC(=O)C[C@H](Cc1c[nH]c2ccccc12)NC(=O)[C@H]1CCCC[C@@H]1N [H14 WS] | 9 | 467 | 176 | 138 | 209 | 307 | 434 | 352 | – | – | – | – | – | – |
| CC(C)[C@@H](CC(=O)N[C@H]1CCCC[C@@H]1C(N)=O)NC(=O)[C@H]1CCCC[C@@H]1NC(=O)[C@H]1CCCC[C@@H]1NC(=O)C[C@H](Cc1c[nH]c2ccccc12)NC(=O)[C@H]1CCCC[C@@H]1N [H14 WV] | 2 | 143 | 13 | 16 | 102 | 85 | 116 | 268 | 224 | – | – | – | – | – |
| NC(=O)[C@H]1CCCC[C@@H]1NC(=O)C[C@H](Cc1ccccc1)NC(=O)[C@H]1CCCC[C@@H]1NC(=O)[C@H]1CCCC[C@@H]1NC(=O)C[C@H](Cc1ccc(O)cc1)NC(=O)[C@H]1CCCC[C@@H]1N [H14 YF] | 2 | 162 | 25 | 34 | 84 | 119 | 149 | 400 | 234 | – | – | medium | – | medium |
| CC(C)[C@@H](CC(=O)N[C@H]1CCCC[C@@H]1C(N)=O)NC(=O)[C@H]1CCCC[C@@H]1NC(=O)[C@H]1CCCC[C@@H]1NC(=O)C[C@H](Cc1ccc(O)cc1)NC(=O)[C@H]1CCCC[C@@H]1N [H14 YV] | 2 | 140 | 23 | 112 | 212 | 448 | 372 | 472 | 223 | – | – | – | – | – |
